According to patent US20210317077A1, “Crystalline Forms of N1-(1-Cyanocycloproply)-N2-((1S)-1-{4'-[(1R-2,2-Difluoro-1-Hydroxyethyl]Biphenyl-4-YL}-2,2,2-Trifluoroethyl)-4-Fluoro-L-Leucinamide” (Intervet Inc., priority 2018, published 2021):

Legend:
[1] = competitive slurry in ethanol/water at 25, 30, 35 and 40° C.; enantiotropically related forms
Description: Competitive slurry experiments of Forms A and B in ethanol/water at 25° C., 30° C., 35° C. and 40° C. were used to establish the transition temperature of the enantiotropic forms.

[2] = Description: The Form B crystals were added to the SLS and PVP to form a slurry. […] FIG. 9 depicts complimentary in situ process analytical data from Raman spectroscopy (on solute concentration and solid phase composition) and Focused Beam Reflectance Measurement (FBRM characterizing number and dimension of the dispersed particles).
[3] = Form A: temperature range where Form B is stable; Form B: process solvent above 50° C., few hours, no Form A seeds

Compound	temperature at which the form is the more stable form [1]	time for conversion of most Form B crystals to Form A crystals ([2]; 80° C., slurry in aqueous SLS and PVP, after introduction of Form A crystal seeds)	Form A detected before seeding ([2]; Form B slurry in aqueous SLS and PVP raised to 80° C., before Form A seeds)	form conversion during API process and DP processing timeframes [3]	relative solubility of the forms (Raman solute signal) ([2]; 80° C., slurry in aqueous SLS and PVP)
CC(C)(F)C[C@H](N[C@@H](c1ccc(-c2ccc([C@@H](O)C(F)F)cc2)cc1)C(F)(F)F)C(=O)NC1(C#N)CC1 [Form B]	≤ 30 °C	≤ 2 h	no Form A detected	converts to Form A	
CC(C)(F)C[C@H](N[C@@H](c1ccc(-c2ccc([C@@H](O)C(F)F)cc2)cc1)C(F)(F)F)C(=O)NC1(C#N)CC1 [Form A]	≥ 40 °C			does not convert to Form B	lower solubility
